Experimental data reported in paper PMC12589562, “Structural and functional characterization of TgGSK3, a druggable kinase in Toxoplasma gondii” (Nature Communications, 2025).

Key:
[1] = target: T1, TgGSK3 (Toxoplasma gondii, UniProt A0A125YY75); test: X-ray co-crystal structure ([…] Å and […] Å); microscale thermophoresis; Kinase-Glo inhibition (IC50 […]); format: binding
T1 construct: gene TGGT1_265330; kinase domain, aa 46-385 (orthorhombic crystal) and aa 20/21-385 (monoclinic crystal)

[2] = target: recombinant TgGSK3 (amino acids 21-385), C-terminal 6His (Toxoplasma gondii); test: crystal structure; monoclinic crystal at 3.0 A of TgGSK3 (aa 20 to 385) with LY2090314; hanging drops in 5% MPD, 9% PEG 6000, 0.1 M Tris pH 7.5; crystals grew after several weeks; four subunits in the asymmetric unit

Row | Compound | Kd [1] [nM] | stoichiometry N [2]
1 | O=C1NC(=O)C(c2cnc3ccccn23)=C1c1cn2c3c(cc(F)cc13)CN(C(=O)N1CCCCC1)CC2 [compound 209, LY2090314] | 34 | –
2 | recombinant TgGSK3 (amino acids 21-385), C-terminal 6His (from UniProt A0A125YY75 21-385) (enzyme) | – | 2
